From BindingDB's records for PubMed 34214508 (Roche Innovation Center Shanghai, 2021)

Assay: Inhibition of mouse TNF-alpha in mouse L929 cells incubated for 18 hrs by CellTitreGlo assay

IC50: 0.125 µM
Compound: Cc1ccc(C)c(Cn2c(C(O)c3ccncc3)nc3ccc(-c4cnn(C)c4)cc32)c1 (stereo unspecified)
